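Protocol summary: plate cells (96-well), add compound at 5 concentrations, incubate 48 h, interpolate endpoints linearly. At the GI50, growth is halved. TGI: concentration producing complete growth inhibition.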
Tests used:
Test in all cases: DTP human tumour cell line panel, 48 h
[1] = test system: TK-10 renal
[2] = test system: SK-MEL-5 melanoma
[3] = test system: ACHN renal
[4] = test system: LOX IMVI melanoma
[5] = test system: OVCAR-5 ovarian
[6] = test system: HOP-62 NSCLC
[7] = test system: NCI-H226 lung
[8] = test system: UO-31 renal
[9] = test system: UACC-257 melanoma
[10] = test system: HS 578T breast
[11] = test system: NCI/ADR-RES ovarian
[12] = test system: EKVX NSCLC
[13] = test system: U251 CNS
[14] = test system: RXF 393 renal
[15] = test system: MDA-MB-231 breast
[16] = test system: SW-620 colon
[17] = test system: SN12C renal
[18] = test system: IGROV1 ovarian
[19] = test system: T-47D breast
[20] = test system: A549 NSCLC
[21] = test system: SNB-75 CNS
[22] = test system: SK-MEL-28 melanoma
[23] = test system: CCRF-CEM leukemia
[24] = test system: OVCAR-4 ovarian
[25] = test system: CAKI-1 renal
[26] = test system: A498 renal
[27] = test system: OVCAR-8 ovarian
[28] = test system: HT29 colon
[29] = test system: SNB-19 CNS
[30] = test system: MALME-3M melanoma
[31] = test system: SF-268 CNS
[32] = test system: KM12 colon
[33] = test system: SF-539 CNS
[34] = test system: HL-60(TB) leukemia
[35] = test system: K-562 leukemia
[36] = test system: DU-145 prostate
[37] = test system: BT-549 breast
[38] = test system: SR leukemia
[39] = test system: COLO 205 colon
[40] = test system: HCT-116 colon
[41] = test system: M14 melanoma
[42] = test system: HOP-92 NSCLC
[43] = test system: SK-OV-3 ovarian
[44] = test system: HCT-15 colon
[45] = test system: NCI-H460 lung
[46] = test system: HCC-2998 colon
[47] = test system: NCI-H522 lung
[48] = test system: 786-0 renal
[49] = test system: NCI-H23 lung
[50] = test system: MCF7 breast
[51] = test system: MOLT-4 leukemia
[52] = test system: SK-MEL-2 melanoma
[53] = test system: PC-3 prostate
[54] = test system: OVCAR-3 ovarian
[55] = test system: UACC-62 melanoma
[56] = test system: MDA-MB-435
[57] = test system: RPMI-8226 leukemia
[58] = test system: SF-295 CNS

In the case of `CCCCCCCC[N+](C)(CCCCCCCC)CCCCCCCC`, the GI50 [1] is reported as 352 nM, the TGI [1] is reported as 1190 nM and the GI50 [2] is reported as 178 nM. The TGI [2] was 344 nM, the GI50 [3] was 427 nM and the TGI [3] was 1460 nM. It also gave a GI50 [4] of 247 nM, a TGI [4] of 709 nM and a GI50 [5] of 621 nM. The TGI [5] was 1980 nM, the GI50 [6] was 473 nM and the TGI [6] was 1610 nM. For the same compound, the GI50 [7] was 406 nM, the TGI [7] was 1490 nM and the GI50 [8] was 465 nM. It also gave a TGI [8] of 1620 nM, a GI50 [9] of 370 nM and a TGI [9] of 1150 nM. For the same compound, the GI50 [10] was 471 nM, the TGI [10] was 2990 nM and the GI50 [11] was 1510 nM. For the same compound, the TGI [11] was 3230 nM, the GI50 [12] was 190 nM and the TGI [12] was 788 nM. For the same compound, the GI50 [13] was 324 nM, the TGI [13] was 1310 nM and the GI50 [14] was 390 nM. It also gave a TGI [14] of 1490 nM, a GI50 [15] of 338 nM and a TGI [15] of 1260 nM. The GI50 [16] was 338 nM, the TGI [16] was 1460 nM and the GI50 [17] was 337 nM. It also gave a TGI [17] of 1240 nM, a GI50 [18] of 347 nM and a TGI [18] of 1910 nM. The GI50 [19] was 258 nM, the TGI [19] was 1730 nM and the GI50 [20] was 1360 nM. The TGI [20] was 3080 nM, the GI50 [21] was 489 nM and the TGI [21] was 1420 nM. It also gave a GI50 [22] of 528 nM, a TGI [22] of 1790 nM and a GI50 [23] of 189 nM. It also gave a TGI [23] of 525 nM, a GI50 [24] of 371 nM and a TGI [24] of 1670 nM. It also gave a GI50 [25] of 83.8 nM, a TGI [25] of 639 nM and a GI50 [26] of 563 nM. For the same compound, the TGI [26] was 1540 nM, the GI50 [27] was 411 nM and the TGI [27] was 1460 nM. The GI50 [28] was 295 nM, the TGI [28] was 1250 nM and the GI50 [29] was 398 nM. It also gave a TGI [29] of 1540 nM, a GI50 [30] of 224 nM and a TGI [30] of 713 nM. The GI50 [31] was 441 nM, the TGI [31] was 1530 nM and the GI50 [32] was 213 nM. It also gave a TGI [32] of 575 nM, a GI50 [33] of 513 nM and a TGI [33] of 1660 nM. For the same compound, the GI50 [34] was 140 nM, the TGI [34] was 366 nM and the GI50 [35] was 108 nM. The TGI [35] was 447 nM, the GI50 [36] was 414 nM and the TGI [36] was 1410 nM. It also gave a GI50 [37] of 309 nM, a TGI [37] of 977 nM and a GI50 [38] of 165 nM. It also gave a TGI [38] of 408 nM, a GI50 [39] of 169 nM and a TGI [39] of 361 nM. For the same compound, the GI50 [40] was 272 nM, the TGI [40] was 1240 nM and the GI50 [41] was 388 nM. The TGI [41] was 1630 nM, the GI50 [42] was 214 nM and the TGI [42] was 803 nM. It also gave a GI50 [43] of 468 nM, a TGI [43] of 1710 nM and a GI50 [44] of 715 nM. It also gave a TGI [44] of 2100 nM, a GI50 [45] of 430 nM and a TGI [45] of 1450 nM. It also gave a GI50 [46] of 305 nM, a TGI [46] of 1170 nM and a GI50 [47] of 223 nM. It also gave a TGI [47] of 746 nM, a GI50 [48] of 345 nM and a TGI [48] of 1300 nM. It also gave a GI50 [49] of 267 nM, a TGI [49] of 1130 nM and a GI50 [50] of 322 nM. It also gave a TGI [50] of 1140 nM, a GI50 [51] of 324 nM and a TGI [51] of 1370 nM. For the same compound, the GI50 [52] was 356 nM, the TGI [52] was 8810 nM and the GI50 [53] was 240 nM. The TGI [53] was 1020 nM, the GI50 [54] was 267 nM and the TGI [54] was 792 nM. The GI50 [55] was 302 nM, the TGI [55] was 1320 nM and the GI50 [56] was 273 nM. For the same compound, the TGI [56] was 1010 nM, the GI50 [57] was 46.3 nM and the TGI [57] was 242 nM. It also gave a GI50 [58] of 261 nM and a TGI [58] of 826 nM.
